According to PMC10014103, “The immunometabolite itaconate stimulates OXGR1 to promote mucociliary clearance during the pulmonary innate immune response” (The Journal of Clinical Investigation, 2023):

What was measured:
OXGR1 = assay: ERK phosphorylation by Western blotting in OXGR1-expressing HEK293 cells; format: cell-based, human; conditions: 5 μM to 1 mM for 15 minutes
Protocol: HEK293 cells were transiently transfected with plasmids expressing empty vector or FLAG-tagged OXGR1 using PolyJet reagent. The medium was switched to serum-free DMEM 36 hours after transfection. After serum starvation for another 12 hours, cells were stimulated with the indicated ligand and lysed in Laemmli buffer. Protein lysate was separated on standard SDS-PAGE, transferred onto a PVDF membrane, and then subjected to immunoblotting with the following antibodies: anti–p-ERK (catalog 4370, Cell Signaling Technology); anti-Flag (catalog 14793, Cell Signaling Technology); anti-IRG1/anti-ACOD1 (catalog 19857, Cell Signaling Technology); anti-Myc (catalog 2278, Cell Signaling Technology); anti-ERK (catalog 67170-1-Ig, Proteintech); and anti-actin (catalog A00702, GenScript).

[1] = tested on: primary respiratory epithelial cells from Oxgr1+/+ and Oxgr1–/– mice; assay: Calcium imaging (Fluo-4AM) of primary mouse trachea epithelial cells; format: cell-based; conditions: 670 μM ITA or 100 μM ATP
Protocol: For calcium imaging of human primary bronchial epithelial cells, cells were infected with 2 CRISPR lentiviruses targeting OXGR1 and cultured for 2 days before calcium imaging. For calcium imaging of primary mouse cells, freshly isolated mouse tracheas were cut into rings, placed onto collagen-coated dishes, and cultured in DMEM supplemented with 10% FBS. Cells were loaded with 5 μM Fluo-4AM for 30 minutes in HBSS buffer, washed twice, and incubated for another 15 minutes for fully deesterification of Fluo-4AM. Cells loaded with Fluo-4AM were monitored with the BioTek Cytation 5 Cell imaging system every 300 ms for a total of 1.5 minutes after ligand administration. Fluorescence was quantified with ImageJ software (NIH).

Compound: C=C(CC(=O)O)C(=O)O [ITA, itaconate]
- phosphorylation of ERK (OXGR1): dose-dependently induced
- calcium mobilization, Oxgr1+/+ cells [1]: rapid calcium mobilization
